What was measured:
CoA-IT = assay: Microsomal CoA-IT activity assay (U937 cell microsomes); type: biochemical; conditions: increased uM or longer pretreatment time
Description: The following is a method to measure CoA-IT activity and the effects of compounds on CoA-IT activity. The assay is based upon mixing cellular material containing CoA-IT activity with a stable lyso phospholipid such as 1-alkyl-2-acyl-GPC and measuring the production of phospholipid product such as 1-alkyl-2-acyl-GPC occurring in the absence of added CoA or CoA-fatty acids.
Any inflammatory cell that contains high levels of COA-IT activity can be used, such as neutrophils, macrophages or cell lines such as U937 cells. U937 cells were obtained from American Type Culture Collection and grown in RPMI- 1640 media (Gibco, Grand Island, N.Y.) supplemented with 10% fetal bovine serum (Hyclone, Logan, Utah) at 37° C., 5% CO2. Cells were grown without differentiation (basal state) by any agent, such as dimethyl sulfoxide.
Microsomes were prepared using standard techniques. […]
CoA-lT activity was measured in 1.5 ml centrifuge tubes in a total volume of 100 ul. […] An aliquot of the chloroform-extracted materials were separated, usually by TLC in chloroform/methanol/acetic acid/water (50:25:8:4, v/v), visualized by radioscanning (Bioscan) and the product, [^3 H]1-alkyl-2-acyl-GPC, was scraped and quantified by liquid scintillation spectroscopy. […]
Protein concentration were assessed using the protein assay reagents from Bio-Rad (Richmond, Calif.).

[1] = system: phorbol ester-induced inflammation in mouse ear; assay: TPA-induced mouse ear inflammation (ear edema and MPO); type: in vivo; conditions: topical, Balb/c mice
Method: Male Balb/c inbred mice were obtained from Charle River Breeding Laboratories (Kingston, N.Y.). Within a single experiment mice (22-25 g) were age-matched. These in vivo experiments typically involved use of 5-6 animals/group.
TPA (12-O-tetradecanoylphorbol 13-acetate) (Sigma Chemical Company) in acetone ([…]) was applied to the inner and outer surfaces of the left ear of BALB/c male mice. The thickness of both ears was then measured with a dial micrometer (Mitutoyo, Japan) at both 2 and 4 hours after treatment, and the data expressed as the change in thickness (10^-3 cm) between treated and untreated ears. […] After measuring the edema, the inflammed left ears were removed and stored at -70° C. until they were assayed for MPO (myeloperoxidase) activity where appropriate.
On the day of the assay, partially thawed ear tissues were minced and then homogenized (10% w/v) with a Tissumnizer homogenizer (Tekmar Co.) in 50 mM phosphate buffer (pH 6) containing 0.5% HTAB. […] Supernatant MPO activity was quantified kinetically (change in absorbance measured over 3 min, sampled at 15-sec intervals) using a Beckman DU-7 spectrophotometer and a Kinetics Analysis package (Beckman Instruments, Inc.). […]
Balb/c mice were given PMA followed by the test compound. The edematous response was measured using a thickness gauge 4 hrs post PMA application. […]

## COC(=O)CCCO[C@@H]1NC(=O)[C@H]1NC(c1ccccc1)(c1ccccc1)c1ccccc1 [Example 17, (3S,4S)-4-[3-(Methoxycarbonyl)propoxy]-3-(triphenylmethylamino)azetidin-2-one]
CoA-IT
  activity in CoA-IT assay at increased concentration or longer pretreatment: active at either increased uM or longer pretreatment time

## C[C@@H]1C[C@H]2[C@@H]3CCC4=CC(=O)C=C[C@]4(C)[C@@]3(F)[C@@H](O)C[C@]2(C)[C@@]1(O)C(=O)CO [dexamethasone, reference compound]
[1]; 4 hrs post PMA application
  Edema @ 4 hr ED50: 0.06 mg/ear
[1]; inflamed ears harvested after the 4 hr edema measurement
  MPO response ED50: 0.03 mg/ear

Reference: US6221860A, “Beta-lactam inhibitors of CoA-IT” (SmithKline Beecham Corporation, priority 1999, dated 2001)
